According to PMC5874719, “A π-Halogen Bond of Dibenzofuranones with the Gatekeeper Phe113 in Human Protein Kinase CK2 Leads to Potent Tight Binding Inhibitors” (Pharmaceuticals, 2018):
Read-outs that look alike come from different tables or passages of the source.

Assays:
Aurora A [1] = biological target: T1, Aurora A (Homo sapiens, UniProt O14965); experiment: kinase selectivity profile; type: biochemical; details: 10 µM inhibitor, 10 µM ATP
T1 construct: purchased Reaction Biology Corp
T1 sequence (O14965 1-403): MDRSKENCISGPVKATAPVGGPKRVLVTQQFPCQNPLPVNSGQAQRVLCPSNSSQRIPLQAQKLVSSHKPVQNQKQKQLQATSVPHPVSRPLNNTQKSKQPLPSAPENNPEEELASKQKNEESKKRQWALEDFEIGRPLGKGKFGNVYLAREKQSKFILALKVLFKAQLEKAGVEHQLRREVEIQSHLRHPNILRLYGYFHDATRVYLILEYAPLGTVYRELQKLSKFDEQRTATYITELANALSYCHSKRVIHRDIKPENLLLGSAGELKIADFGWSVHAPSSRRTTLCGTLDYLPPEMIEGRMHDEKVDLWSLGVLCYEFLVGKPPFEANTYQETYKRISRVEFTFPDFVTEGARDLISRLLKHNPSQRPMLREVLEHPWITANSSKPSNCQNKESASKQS
From the text: This demands further investigation.

[2] = biological target: T2, human protein kinase CK2 holoenzyme (CK2α2β2) (Homo sapiens, UniProt P68400); design: method as in PMID 22387500; details: cited from earlier work
T2 construct: made in house
T2 sequence (P68400 whole entry): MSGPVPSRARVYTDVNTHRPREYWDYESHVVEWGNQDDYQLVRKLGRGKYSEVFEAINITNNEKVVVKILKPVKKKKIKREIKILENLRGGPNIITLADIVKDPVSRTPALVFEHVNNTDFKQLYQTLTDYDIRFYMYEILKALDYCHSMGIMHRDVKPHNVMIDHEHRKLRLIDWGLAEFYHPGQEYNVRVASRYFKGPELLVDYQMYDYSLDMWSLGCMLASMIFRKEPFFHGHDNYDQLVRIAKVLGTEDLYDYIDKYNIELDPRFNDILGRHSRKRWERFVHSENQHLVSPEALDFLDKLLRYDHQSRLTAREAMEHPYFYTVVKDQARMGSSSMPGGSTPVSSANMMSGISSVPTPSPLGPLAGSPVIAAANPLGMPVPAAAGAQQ
T2 sequence (P67870 whole entry partner): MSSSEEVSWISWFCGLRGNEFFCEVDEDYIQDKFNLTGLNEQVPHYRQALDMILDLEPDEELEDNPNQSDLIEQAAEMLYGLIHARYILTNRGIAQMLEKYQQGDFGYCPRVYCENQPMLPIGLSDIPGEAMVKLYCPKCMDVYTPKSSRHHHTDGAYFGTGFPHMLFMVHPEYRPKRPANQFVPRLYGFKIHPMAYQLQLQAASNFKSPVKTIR

Aurora A [3] = biological target: T1, Aurora A; design: method as in PMID 22387500; details: 10 µM inhibitor; cited from earlier work
SKG1 = biological target: T3, SKG1 (Homo sapiens, UniProt O00141); design: method as in PMID 22387500; details: 10 µM inhibitor; cited from earlier work
T3 construct: purchased Reaction Biology Corp
T3 sequence (O00141 whole entry): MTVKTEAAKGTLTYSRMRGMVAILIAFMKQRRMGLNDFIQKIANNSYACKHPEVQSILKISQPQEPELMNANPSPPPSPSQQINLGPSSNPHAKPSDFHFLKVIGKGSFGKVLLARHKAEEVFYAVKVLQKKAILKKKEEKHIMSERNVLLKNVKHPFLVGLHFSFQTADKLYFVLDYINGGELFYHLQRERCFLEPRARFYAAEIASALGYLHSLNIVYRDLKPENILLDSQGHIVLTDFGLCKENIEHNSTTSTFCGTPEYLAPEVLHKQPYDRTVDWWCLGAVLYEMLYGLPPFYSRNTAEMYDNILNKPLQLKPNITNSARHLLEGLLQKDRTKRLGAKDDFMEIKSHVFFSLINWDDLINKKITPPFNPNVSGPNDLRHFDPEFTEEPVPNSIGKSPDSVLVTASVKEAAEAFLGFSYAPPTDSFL

PIM1 [4] = biological target: T4, PIM1 (Homo sapiens, UniProt P11309); design: method as in PMID 22387500; details: 10 µM inhibitor; cited from earlier work
T4 sequence (P11309 whole entry): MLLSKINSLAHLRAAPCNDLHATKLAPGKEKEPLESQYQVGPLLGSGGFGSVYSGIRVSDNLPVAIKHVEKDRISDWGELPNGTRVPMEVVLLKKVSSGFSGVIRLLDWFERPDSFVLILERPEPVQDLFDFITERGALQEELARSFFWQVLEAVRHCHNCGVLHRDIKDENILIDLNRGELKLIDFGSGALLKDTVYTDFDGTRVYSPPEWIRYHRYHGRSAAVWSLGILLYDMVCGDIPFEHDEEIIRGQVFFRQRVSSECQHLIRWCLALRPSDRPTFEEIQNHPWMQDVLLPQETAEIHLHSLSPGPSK

LCK [5] = biological target: T5, LCK (Homo sapiens, UniProt P06239); design: method as in PMID 22387500; details: 10 µM inhibitor; cited from earlier work
T5 sequence (P06239 whole entry): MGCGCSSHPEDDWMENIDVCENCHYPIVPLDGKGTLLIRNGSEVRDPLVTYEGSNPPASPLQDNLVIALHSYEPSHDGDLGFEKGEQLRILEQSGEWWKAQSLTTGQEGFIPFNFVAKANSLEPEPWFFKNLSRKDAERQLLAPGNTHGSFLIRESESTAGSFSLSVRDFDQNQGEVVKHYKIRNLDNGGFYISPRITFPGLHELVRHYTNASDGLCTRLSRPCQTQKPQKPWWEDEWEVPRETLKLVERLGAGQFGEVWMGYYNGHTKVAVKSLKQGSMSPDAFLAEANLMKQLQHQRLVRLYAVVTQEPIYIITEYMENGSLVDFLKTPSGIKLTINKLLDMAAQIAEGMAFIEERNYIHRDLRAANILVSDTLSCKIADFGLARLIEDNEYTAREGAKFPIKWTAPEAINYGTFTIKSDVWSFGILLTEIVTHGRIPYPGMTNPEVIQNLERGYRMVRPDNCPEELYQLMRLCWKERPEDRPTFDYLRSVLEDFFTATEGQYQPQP

PKD/PRKD2 = tested on: PKD/PRKD2; design: method as in PMID 22387500; details: 10 µM inhibitor; cited from earlier work
FLT4/VEGFR3 [6] = biological target: T6, FLT4/VEGFR3 (Homo sapiens, UniProt P35916); design: purchased Reaction Biology Corp; method as in PMID 22387500; details: 10 µM inhibitor; cited from earlier work
T6 sequence (P35916 25-1363): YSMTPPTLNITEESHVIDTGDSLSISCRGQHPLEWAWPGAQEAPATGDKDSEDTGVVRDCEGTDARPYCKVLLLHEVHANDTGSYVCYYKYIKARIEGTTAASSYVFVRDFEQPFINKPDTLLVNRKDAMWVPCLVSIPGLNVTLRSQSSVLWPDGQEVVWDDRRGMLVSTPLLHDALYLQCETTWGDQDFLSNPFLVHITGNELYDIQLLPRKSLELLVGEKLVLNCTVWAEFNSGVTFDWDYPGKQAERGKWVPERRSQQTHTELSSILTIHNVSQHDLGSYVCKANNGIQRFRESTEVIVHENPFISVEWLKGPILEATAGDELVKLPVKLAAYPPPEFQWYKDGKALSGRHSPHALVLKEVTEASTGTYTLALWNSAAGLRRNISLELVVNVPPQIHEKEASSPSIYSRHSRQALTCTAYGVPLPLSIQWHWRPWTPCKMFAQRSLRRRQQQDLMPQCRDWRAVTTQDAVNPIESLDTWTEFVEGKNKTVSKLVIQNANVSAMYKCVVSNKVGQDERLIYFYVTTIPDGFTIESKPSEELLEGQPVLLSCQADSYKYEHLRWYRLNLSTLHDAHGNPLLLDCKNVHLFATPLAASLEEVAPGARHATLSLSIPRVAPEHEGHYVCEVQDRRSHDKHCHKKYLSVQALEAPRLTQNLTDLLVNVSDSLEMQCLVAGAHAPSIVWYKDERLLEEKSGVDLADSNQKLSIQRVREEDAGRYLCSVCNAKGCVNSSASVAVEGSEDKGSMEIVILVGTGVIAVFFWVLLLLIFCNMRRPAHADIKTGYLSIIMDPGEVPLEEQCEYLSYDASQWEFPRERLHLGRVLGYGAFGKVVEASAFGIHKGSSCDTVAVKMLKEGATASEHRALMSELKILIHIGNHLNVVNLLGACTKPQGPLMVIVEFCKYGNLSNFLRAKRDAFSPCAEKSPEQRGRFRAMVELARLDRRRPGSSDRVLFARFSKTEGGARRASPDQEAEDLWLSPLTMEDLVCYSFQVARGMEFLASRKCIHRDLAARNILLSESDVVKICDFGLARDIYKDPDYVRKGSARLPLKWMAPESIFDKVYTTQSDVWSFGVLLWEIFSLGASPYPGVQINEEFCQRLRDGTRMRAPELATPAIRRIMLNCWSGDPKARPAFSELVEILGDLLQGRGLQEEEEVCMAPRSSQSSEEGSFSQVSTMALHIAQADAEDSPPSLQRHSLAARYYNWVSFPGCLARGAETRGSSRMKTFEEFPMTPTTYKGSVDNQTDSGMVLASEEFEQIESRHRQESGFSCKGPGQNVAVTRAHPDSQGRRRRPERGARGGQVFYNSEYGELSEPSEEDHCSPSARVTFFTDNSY

KDR/VEGFR2 [7] = biological target: T7, KDR/VEGFR2 (Homo sapiens, UniProt P35968); design: purchased Reaction Biology Corp; method as in PMID 22387500; details: 10 µM inhibitor; cited from earlier work
T7 sequence (P35968 20-1356): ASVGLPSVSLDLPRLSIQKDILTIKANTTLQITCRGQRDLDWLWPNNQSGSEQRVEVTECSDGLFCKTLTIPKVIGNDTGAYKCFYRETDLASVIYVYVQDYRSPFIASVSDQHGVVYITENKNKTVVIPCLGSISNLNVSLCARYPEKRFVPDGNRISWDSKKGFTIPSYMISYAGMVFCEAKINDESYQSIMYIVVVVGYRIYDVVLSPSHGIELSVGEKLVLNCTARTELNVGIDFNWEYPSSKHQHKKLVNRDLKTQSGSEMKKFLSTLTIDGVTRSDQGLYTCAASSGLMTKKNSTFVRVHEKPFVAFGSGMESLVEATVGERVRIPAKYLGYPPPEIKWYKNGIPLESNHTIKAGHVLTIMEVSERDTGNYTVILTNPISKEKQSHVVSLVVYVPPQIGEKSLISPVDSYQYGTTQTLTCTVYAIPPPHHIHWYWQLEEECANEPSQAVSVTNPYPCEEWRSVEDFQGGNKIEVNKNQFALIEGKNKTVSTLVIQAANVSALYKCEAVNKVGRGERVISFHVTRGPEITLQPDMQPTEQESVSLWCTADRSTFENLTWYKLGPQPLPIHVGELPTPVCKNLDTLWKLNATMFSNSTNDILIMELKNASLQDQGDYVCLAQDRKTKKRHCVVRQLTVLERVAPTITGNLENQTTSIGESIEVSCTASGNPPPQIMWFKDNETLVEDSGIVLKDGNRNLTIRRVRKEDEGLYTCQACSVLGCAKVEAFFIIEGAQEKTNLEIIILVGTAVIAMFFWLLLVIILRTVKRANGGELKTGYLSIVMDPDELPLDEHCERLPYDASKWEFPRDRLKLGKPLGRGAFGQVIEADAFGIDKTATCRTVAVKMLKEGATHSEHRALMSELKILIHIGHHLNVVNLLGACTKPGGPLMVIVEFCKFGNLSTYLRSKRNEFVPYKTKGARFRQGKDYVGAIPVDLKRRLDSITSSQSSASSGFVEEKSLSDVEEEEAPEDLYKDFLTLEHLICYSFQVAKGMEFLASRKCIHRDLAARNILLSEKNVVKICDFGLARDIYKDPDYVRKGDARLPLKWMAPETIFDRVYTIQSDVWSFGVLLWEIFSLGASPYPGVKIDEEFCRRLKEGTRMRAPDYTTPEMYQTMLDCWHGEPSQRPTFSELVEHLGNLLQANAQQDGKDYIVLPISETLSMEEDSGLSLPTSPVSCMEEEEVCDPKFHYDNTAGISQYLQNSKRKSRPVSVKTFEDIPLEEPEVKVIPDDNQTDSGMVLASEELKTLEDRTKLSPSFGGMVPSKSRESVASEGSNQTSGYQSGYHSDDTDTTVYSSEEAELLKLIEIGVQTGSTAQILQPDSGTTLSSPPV

C-Met = C-Met (Homo sapiens, UniProt P08581); details: 10 µM inhibitor, 10 µM ATP
Experimental: (§1) For this purpose 61 kinases from different representative subgroups (and CK2α and CK2α’) were tested. Testing was performed with inhibitor concentrations of 10 µM and an ATP concentration of 10 μM. The residual enzyme activity as obtained was set in relation to a control without inhibitor.

FLT4/VEGFR3 [8] = biological target: T6, FLT4/VEGFR3; details: 10 µM inhibitor, 10 µM ATP
Experimental: as §1

KDR/VEGFR2 [9] = biological target: T7, KDR/VEGFR2; details: 10 µM inhibitor, 10 µM ATP
Experimental: as §1

PIM1 [10] = biological target: T4, PIM1; details: 10 µM inhibitor, 10 µM ATP
Experimental: as §1

PKA = PKA (Homo sapiens, UniProt P17612); details: 10 µM inhibitor, 10 µM ATP
Experimental: as §1

LCK [11] = biological target: T5, LCK; experiment: biochemical
Experimental: as §1

CK2α = details: towards CK2α, radiometric assay; cited from earlier work

kinase inhibited more than 70% at 10 µM concentration (Aurora A [1])	kinase inhibited more than 70% at 10 µM concentration (C-Met)	kinase inhibited more than 70% at 10 µM concentration (FLT4/VEGFR3 [8])	kinase inhibited more than 70% at 10 µM concentration (KDR/VEGFR2 [9])	kinase inhibited more than 70% at 10 µM concentration (PIM1 [10])	kinase inhibited more than 70% at 10 µM concentration (PKA)	inhibition at 10 µM (LCK [11])	Compound	Ki ([2]; ATP concentrations 6 µM to 400 µM)	IC50 ([2]; earlier work of the authors)	kinase inhibited more than 70% at 10 µM concentration (Aurora A [3])	kinase inhibited more than 70% at 10 µM concentration (SKG1)	kinase inhibited more than 70% at 10 µM concentration (PIM1 [4])	kinase inhibited more than 70% at 10 µM concentration (LCK [5])	kinase inhibited more than 70% at 10 µM concentration (PKD/PRKD2)	kinase inhibited more than 70% at 10 µM concentration (FLT4/VEGFR3 [6])	kinase inhibited more than 70% at 10 µM concentration (KDR/VEGFR2 [7])	IC50 (CK2α)
Aurora A	–	–	–	–	–	–	COc1ccc(N/C=C2\C(=O)CCc3c2oc2cc(Cl)c(O)c(Cl)c32)cc1 [4a, 7,9-dichloro-1,2-dihydro-8-hydroxy-4-[(4-methoxyphenylamino)methylene]dibenzo[b,d]furan-3(2H)-one]	–	–	–	–	–	–	–	–	–	–
–	–	–	–	–	–	–	Cc1ccc(NC=C2C(=O)CCc3c2oc2c(Cl)c(Cl)c(O)cc32)cc1 [4b, 6,7-dichloro-1,4-dihydro-8-hydroxy-4-[(4-methylphenylamino)methylene]dibenzo[b,d]furan-3(2H)-one]	15 nM	29 nM	Aurora A	SKG1	PIM1	LCK	PKD/PRKD2	FLT4/VEGFR3	KDR/VEGFR2	–
Aurora A	C-Met	FLT4/VEGFR3	KDR/VEGFR2	PIM1	PKA	68%	COc1ccc(/N=C/c2c(O)ccc3c2oc2cc(Cl)c(O)c(Cl)c23)cc1 [compound 5, (E)-1,3-dichloro-6-[(4-methoxyphenylimino)methyl]dibenzo[b,d]furan-2,7-diol]	–	–	–	–	–	–	–	–	–	7 nM
